Here are results for two molecules from article PMC6332200, “Isolation and Identification of Cytotoxic Compounds from Aeschynomene fascicularis, a Mayan Medicinal Plant” (Molecules, 2015).

The test system of data set [1] is HeLa. Briefly: Cytotoxicity MTT assay, HeLa cervix adenocarcinoma. It counts as cell-based, human. The conditions noted are these: Homo sapiens; HeLa, MTT, 72 h; read-out: Cytotoxic activity CC50. How it is done: (§1) Three types of cancer cell lines obtained from the American Type Culture Collection (ATCC) were cultured: two oral-laryngeal cancer cell lines, nasopharynx carcinoma (KB, ATCC-CCL-17) and laryngeal carcinoma (Hep-2, ATCC-CCL-23); two cervix-uterine cancer cell lines, cervix adenocarcinoma (HeLa, ATCC-CCL-2) and cervix squamous carcinoma (SiHa, ATCC-HTB-35); and two prostate cancer cell lines, prostate carcinoma (DU-145, ATCC-HTB-81) and prostate adenocarcinoma (PC-3, ATCC-CRL-1435); along with one normal cell line (MDCK, ATCC-CCL-34). The cells were cultured in sterile Costar T75 flasks containing DMEM (Gibco, Hong Kong, China), supplemented with fetal bovine serum (10%, v/v), 100 U/mL penicillin G, and […] streptomycin at 37 °C in an atmosphere of 5% CO2 (95% humidity). At 70%–80% confluence, cells were detached from the cultured flask by treatment with 0.05% trypsin-EDTA (Gibco), and a suspension of 5 × 10^4 cells/mL of viable cells was seeded in a 96-well microtiter plate (Costar, Washington, DC, USA) and incubated. Cytotoxicity was assessed by the MTT assay as previously described by Rahman. When cells reached 90% confluence in a microtiter plate, the DMEM was replaced with fresh medium and cells were incubated with compounds at various concentrations. […] The medium was aspirated, and the formazan product was solubilized with acidified isopropanol (0.4 N HCl). The amount of MTT-formazan is directly proportional to the number of living cells and was determined by measuring the optical density (OD) at 590 nm using a bioassay reader (Bio-Rad). All determinations were performed in triplicate. The cytotoxic and antiproliferative activities of tested compounds were calculated as the percentage of cells killed or the percentage of inhibition of cell proliferation, respectively, using the equation: growth inhibition (%) = (ODcontrol − ODsample/ODcontrol) × 100. […] In addition, the level of cytotoxicity on normal cells was evaluated by determining the selectivity index (SI) of each compound, which is calculated as the ratio of cytotoxicity or reduced cell growth on normal cells to cancer cells (SI = normal cells/cancer cells).
For orientation: Tetrazolium dyes change colour on reduction, which living cells bring about.

Data set [2] deals with MDCK. In words: Antiproliferative sulforhodamine B assay, MDCK normal cell line. It counts as cell-based. The conditions noted are these: Canis lupus familiaris, SRB, 48 h. How it is done: (§2) Three types of cancer cell lines obtained from the American Type Culture Collection (ATCC) were cultured: two oral-laryngeal cancer cell lines, nasopharynx carcinoma (KB, ATCC-CCL-17) and laryngeal carcinoma (Hep-2, ATCC-CCL-23); two cervix-uterine cancer cell lines, cervix adenocarcinoma (HeLa, ATCC-CCL-2) and cervix squamous carcinoma (SiHa, ATCC-HTB-35); and two prostate cancer cell lines, prostate carcinoma (DU-145, ATCC-HTB-81) and prostate adenocarcinoma (PC-3, ATCC-CRL-1435); along with one normal cell line (MDCK, ATCC-CCL-34). The cells were cultured in sterile Costar T75 flasks containing DMEM (Gibco, Hong Kong, China), supplemented with fetal bovine serum (10%, v/v), 100 U/mL penicillin G, and […] streptomycin at 37 °C in an atmosphere of 5% CO2 (95% humidity). At 70%–80% confluence, cells were detached from the cultured flask by treatment with 0.05% trypsin-EDTA (Gibco), and a suspension of 5 × 10^4 cells/mL of viable cells was seeded in a 96-well microtiter plate (Costar, Washington, DC, USA) and incubated.
(§3) The growth inhibition of cancer cells was evaluated by the sulforhodamine B method. When cells reached 70% confluence in a microtiter plate, the medium was replaced with DMEM 5% FBS and samples at various concentrations. After 48 h, the medium was discarded, and cells were fixed by adding 50 μL of 10% trichloroacetic acid (TCA, Sigma-Aldrich Chemical, St. Louis, MO, USA). The cells were then incubated at 4 °C for 30 min; TCA was drained off, and the plates were left to dry. Then, 50 μL of SRB stain (10 mg of 1% acetic acid, Sigma) were added to each well for 30 min. Finally, the plates were washed four times with 1% acetic acid (100 μL). The OD was measured at 540 nm using an ELISA reader (Bio-Rad). Docetaxel was used as a positive control, whereas cells incubated only with 0.05% of DMSO were used as a negative control. All determinations were performed in triplicate.
(§4) The cytotoxic and antiproliferative activities of tested compounds were calculated as the percentage of cells killed or the percentage of inhibition of cell proliferation, respectively, using the equation: growth inhibition (%) = (ODcontrol − ODsample/ODcontrol) × 100. […] In addition, the level of cytotoxicity on normal cells was evaluated by determining the selectivity index (SI) of each compound, which is calculated as the ratio of cytotoxicity or reduced cell growth on normal cells to cancer cells (SI = normal cells/cancer cells). It is generally considered that biological efficacy is not due to general toxicity when SI ≥ 10 [17].
In general terms: In SRB staining, fixed cells bind dye roughly in proportion to their protein.

The test system of data set [3] is PC-3. Briefly: Cytotoxicity MTT assay, PC-3 prostate adenocarcinoma. Conditions: Homo sapiens; PC-3, MTT, 72 h; read-out: Cytotoxic activity CC50. The data set is classed as cell-based, human. How it is done: as §1
Data set [4] relates to Hep-2. Briefly: Cytotoxicity MTT assay, Hep-2 laryngeal carcinoma. The data set is classed as cell-based, human. The conditions noted are these: Homo sapiens; Hep-2, MTT, 72 h; read-out: Cytotoxic activity CC50. How it is done:
as §1

The test system of data set [5] is KB. Briefly: Cytotoxicity MTT assay, KB nasopharynx carcinoma. It counts as cell-based, human. Conditions: Homo sapiens; KB, MTT, 72 h; read-out: Cytotoxic activity CC50. How it is done: as §1
Data set [6] relates to SiHa. In words: Antiproliferative sulforhodamine B assay, SiHa. It counts as cell-based, human. Conditions: Homo sapiens; SiHa, SRB, 48 h. The protocol:
as §2, §3, §4

For data set [7], the system named is HeLa. Briefly: Antiproliferative sulforhodamine B assay, HeLa. The data set is classed as cell-based, human. Conditions: Homo sapiens; HeLa, SRB, 48 h. The protocol:
as §2, §3, §4

For data set [8], the system named is PC-3. In words: Antiproliferative sulforhodamine B assay, PC-3. Conditions: Homo sapiens; PC-3, SRB, 48 h. It counts as cell-based. How it is done:
as §2, §3, §4

In data set [9] the test system is tested cell lines. Briefly: Cytotoxicity and antiproliferative bioassays, whole panel of tested cell lines. It counts as cell-based. The conditions noted are these: all tested cell lines. The protocol:
as §2, with “At 70%–80% confluence, cells were detached from the cultured flask by treatment with 0.05% trypsin-EDTA (Gibco), and a suspension of 5 × 10^4 cells/mL of viable cells was seeded in a 96-well microtiter plate (Costar, Washington, DC, USA) and incubated.” left out
Cytotoxicity was assessed by the MTT assay as previously described by Rahman. […] The amount of MTT-formazan is directly proportional to the number of living cells and was determined by measuring the optical density (OD) at 590 nm using a bioassay reader (Bio-Rad). […]
The growth inhibition of cancer cells was evaluated by the sulforhodamine B method. […] The OD was measured at 540 nm using an ELISA reader (Bio-Rad). […]

Data set [10] has as its system DU-145. Briefly: Cytotoxicity MTT assay, DU-145 prostate carcinoma. The data set is classed as cell-based, human. Conditions: Homo sapiens; DU-145, MTT, 72 h; read-out: Cytotoxic activity CC50. The protocol:
as §1

In data set [11] the test system is DU-145. Briefly: Antiproliferative sulforhodamine B assay, DU-145. The conditions noted are these: for IC50: Homo sapiens, DU-145, SRB, 48 h. It counts as cell-based, human. How it is done: as §2, §3, §4
Data set [12] deals with Hep-2. In words: Antiproliferative sulforhodamine B assay, Hep-2. Conditions: Homo sapiens; Hep-2, SRB, 48 h. It counts as cell-based, human. How it is done: as §2, §3, §4
Data set [13] in a line: Cytotoxicity MTT assay, MDCK normal cell line. The data set is classed as cell-based. Conditions: dog, MDCK cells (normal cell line), read-out: Cytotoxic activity CC50. The protocol: as §1
The subject of data set [14] is KB. Briefly: Antiproliferative sulforhodamine B assay, KB. It counts as cell-based, human. Conditions: Homo sapiens; KB, SRB, 48 h. How it is done: as §2, §3, §4
Data set [15] concerns SiHa. Briefly: Cytotoxicity MTT assay, SiHa cervix squamous carcinoma. It counts as cell-based, human. The conditions noted are these: Homo sapiens; SiHa, MTT, 72 h; read-out: Cytotoxic activity CC50. How it is done:
as §1

Data set [16] in a line: Cytotoxicity MTT assay, PC-3 prostate adenocarcinoma. The data set is classed as cell-based, human. The conditions noted are these: human, MDCK normal cells versus PC-3 prostate adenocarcinoma cells; CC50 MDCK normal cells / PC-3; read-out: Selectivity index (SI) of cytotoxic activity. The protocol:
as §1

Data set [17] relates to Leishmania mexicana. Also noted: method as in PMID 17291734. Conditions: cited from earlier work.
Data set [18] in a line: Cytotoxicity MTT assay, Hep-2 laryngeal carcinoma. It counts as cell-based, human. The conditions noted are these: dog MDCK normal cells versus Hep-2 laryngeal carcinoma cells; CC50 MDCK normal cells / Hep-2; read-out: Selectivity index (SI) of cytotoxic activity. The protocol: as §1
A short description of data set [19]: Cytotoxicity MTT assay, KB nasopharynx carcinoma. It counts as cell-based, human. Conditions: human, MDCK normal cells versus KB nasopharynx carcinoma cells; CC50 MDCK normal cells / KB; read-out: Selectivity index (SI) of cytotoxic activity. How it is done:
as §1

Data set [20] relates to Trypanosoma cruzi. More on the design: method as in PMID 17291734. Conditions: cited from earlier work.
Data set [21] in a line: Cytotoxicity MTT assay, DU-145 prostate carcinoma. The conditions noted are these: human, MDCK normal cells versus DU-145 prostate carcinoma cells; CC50 MDCK normal cells / DU-145; read-out: Selectivity index (SI) of cytotoxic activity. The data set is classed as cell-based, human. How it is done:
as §1

Structures are written as SMILES. “And” between values parts separate entries of the source, which are not always exact repeats. Identical values can stand only once.

Turning to `CC(C)=CCc1c(O)c(C(=O)/C=C/c2ccccc2)cc2c1OC(C)(C)C=C2` [Compound 1, spinochalcone C], the CC50 in data set [1], in data set [3], in data set [4], in data set [5], in data set [10] and in data set [15] was above 100 µg/mL in each case. The IC50 in data set [2], in data set [6], in data set [7], in data set [8], in data set [11] and in [12] was above 100 µM each time. In addition, the IC50 (as a rule, the concentration needed to halve the response being measured) in data set [14] is above 100 µM. For the same molecule, the “Active concentration on tested cell lines (no activity to the maximum concentration)” value in [9] is recorded as above 100 µM. The CC50 – broadly, the concentration giving 50% cytotoxicity – at 72 h in data set [13] is above 100 µg/mL.

As to `CC(C)=CCc1c(O)ccc(C(=O)/C=C/c2ccccc2)c1O` [Compound 3, isocordoin], the CC50 in [1] was above 100 µg/mL; in [3], 18.4 µg/mL and 60.3 µM; in [4], 6.1 µg/mL and 20 µM; in data set [5], 11 µg/mL and 27 µM; in data set [10] it was 7 µg/mL and 23.1 µM; in [15] it was above 100 µg/mL. Besides, the IC50 in [2] is 18.4 µg/mL and 60.8 µM; in [6], above 100 µM; in data set [7], above 100 µM; in [8], above 100 µM; in data set [11], 13.3 µg/mL and 43.8 µM; in [12], above 100 µM. The molecule further had an IC50 in [14] above 100 µM. For the same molecule, the selectivity ratio at 72 h in data set [16] worked out at 0.23; in data set [18], 0.7; in data set [19] it was 0.5; in [21], 0.6. Besides, the “Activity against the parasite Leishmania mexicana” value in [17] is “active”. For the same molecule, in data set [20], the “Activity against the parasite Trypanosoma cruzi” value was “active”. Further, the “Selectivity index (SI) of antiproliferative activity” value in data set [11] (IC50 MDCK normal cells / DU-145) is on record as 1.4. The CC50 at 72 h in data set [13] is 4.2 µg/mL and 14 µM.
